# According to PMC7598997, “Synthesis and evaluation of anticancer activities of 2- or 4-substituted 3-(N-benzyltriazolylmethyl)-13α-oestrone derivatives” (Journal of Enzyme Inhibition and Medicinal Chemistry, 2020):
# Key:
# [1] = tested on: A2780 cell line; design: method as in PMID 27263437; details: described earlier ref 16; cited from earlier work
# [2] = tested on: MCF-7 cell line; design: method as in PMID 27263437; details: described earlier ref 16; cited from earlier work
# [3] = tested on: OATP2B1; design: method as in PMID 30498534; details: read-out: OATP2B1 inhibition IC50; cited from earlier work
# [4] = biological target: 17β-hydroxysteroid dehydrogenase 1, 17β-HSD1; details: read-out: 17β-HSD1 inhibition IC50; cited from earlier work
# [5] = tested on: steroid sulfatase, STS; design: method as in PMID 30230387; details: cited from earlier work
# [6] = tested on: non-cancerous mouse embryo fibroblast cell line NIH/3T3; experiment: MTT assay for cancer selectivity, NIH/3T3; format: cell-based
# Method: (§1) The antiproliferative properties of the newly synthesised triazoles (11a,b–15a,b) were determined on a panel of human adherent cancer cell lines of gynaecological origin. MCF-7 and MDA-MB-231 were isolated from breast cancers differing in biochemical background, while A2780 cells were isolated from ovarian cancer. The cancer selectivity of compound 12a was tested on the non-cancerous mouse embryo fibroblast cell line NIH/3T3. All cell lines were purchased from European Collection of Cell Cultures (ECCAC, Salisbury, UK). Cells were cultivated in minimal essential medium supplemented with 10% foetal bovine serum, 1% non-essential amino acids and an antibiotic–antimycotic mixture. All media and supplements were obtained from Lonza Group Ltd., Basel, Switzerland. Near-confluent cancer cells were seeded onto a 96-well microplate (5000 cells/well) and, after overnight standing, 200 µL new medium, containing the tested compounds at 10 and 30 µM, was added. After incubation for 72 h at 37 °C in humidified air containing 5% CO2, the living cells were assayed by the addition of 20 µL of 5 mg/ml 3-(4,5-dimethylthiazol-2-yl)-2,5-diphenyltetrazolium bromide (MTT) solution. MTT was converted by intact mitochondrial reductase and precipitated as purple crystals during a 4-h contact period. The medium was next removed and the precipitated formazan crystals were dissolved in 100 µL of DMSO during a 60-min period of shaking at 37 ^оC.
# (§2) Finally, the reduced MTT was assayed at 545 nm, using a microplate reader utilising wells with untreated cells serving as control. […] All in vitro experiments were carried out on two microplates with at least five parallel wells. Stock solutions of the tested substances (10 mM) were prepared in DMSO. […] Cisplatin (Ebewe Pharma GmbH, Unterach, Austria) was used as positive control.
# [7] = tested on: MCF-7 cells; experiment: MTT antiproliferative assay, MCF-7; format: cell-based, human; details: Homo sapiens, MCF7, MTT
# Method: as §1, §2
# [8] = tested on: MDA-MB-231 cells; experiment: MTT antiproliferative assay, MDA-MB-231; format: cell-based, human; details: Homo sapiens, MTT
# Method: as §1, §2
# [9] = tested on: A2780 cells; experiment: MTT antiproliferative assay, A2780; format: cell-based, human; details: Homo sapiens, MTT
# Method: as §1, §2
# [10] = tested on: tubulin; experiment: cell-free in vitro tubulin polymerisation assay; format: biochemical; details: vs untreated control
# Method: The effect of brominated triazole (12a) on tubulin polymerisation was tested with the HTS-Tubulin Polymerisation Assay Biochem Kit (Bio-Kasztel Ltd., Budapest, Hungary) according to the manufacturer’s recommendations. Briefly, 10 µl of a 0.125 or 0.25 mM solution of the test compound (12a) was placed on a prewarmed (37 °C), UV-transparent microplate. About 10 µl 10 µM paclitaxel and 10 µl General Tubulin Buffer were used as positive and negative control, respectively. 100 µl 3.0 mg/ml tubulin in 80 mM PIPES pH 6.9, 2 mM MgCl2, 0.5 mM EGTA, 1 mM GTP was added to each sample, and the microplate was immediately placed into a prewarmed (37 °C) UV-spectrophotometer (SpectoStarNano, BMG Labtech, Ortenberg, Germany) to start the recording reaction. A 60-min kinetic measurement protocol was applied to determine the absorbance of the reaction solution per minute at 340 nm. For the evaluation of the experimental data, the maximum reaction rate (Vmax: Δabsorbance/min) was calculated. Moving averages of absorbances determined at three consecutive timepoints were calculated and the highest difference between two succeeding moving averages was taken as the Vmax of the tested compound in the tubulin polymerisation reaction. Each sample was prepared in two parallels and the measurements were repeated twice. For statistical evaluation, Vmax data were analysed by the one-way ANOVA test with the Newmann–Keuls post-test by using Prism 4.01 software (GraphPad Software, San Diego, CA).
# [11] = tested on: tested cell lines; design: method as in PMID 27263437; details: described earlier ref 16; cited from earlier work
# [12] = tested on: tubulin; details: cited from earlier work
# [13] = tested on: HeLa cells; design: method as in PMID 27363663; details: HeLa cells ref 15; cited from earlier work
# [14] = tested on: HeLa cells; design: method as in PMID 27363663; details: HeLa cells ref 15; cited from earlier work; remark: listed apart in the source
smiles,measurement,setting,value
"C[C@@]12CC[C@@H]3c4ccc(OCc5cn(Cc6ccccc6)nn5)cc4CC[C@H]3[C@@H]1CCC2=O [Compound 4a, 3-[{1-benzyl-1H-1,2,3-triazol-4-yl}methoxy]-13α-estra-1,3,5(10)-trien-17-one]",IC50,[1],0.5 to 0.6 µM
same,IC50,[2],0.5 to 0.6 µM
CCOP(=O)(OCC)c1cc2c(cc1OCc1ccccc1)CC[C@@H]1[C@@H]2CC[C@@]2(C)C(=O)CC[C@@H]12 [Compound 8],IC50,[3],0.2 µM
CCOP(=O)(OCC)c1cc2c(cc1O)CC[C@@H]1[C@@H]2CC[C@@]2(C)C(=O)CC[C@@H]12 [Compound 7],IC50,[3],1 to 2 µM
same,IC50,[4],1 to 2 µM
C[C@@]12CC[C@@H]3c4ccc(O)c(Br)c4CC[C@H]3[C@@H]1CCC2=O [Compound 6],IC50,[4],~1 µM
same,STS inhibition,[5],dual STS and 17β-HSD1 inhibition
"C[C@@]12CC[C@@H]3c4ccc(OCc5cn(Cc6ccccc6)nn5)c(Br)c4CC[C@H]3[C@@H]1CCC2=O [Compound 12a, 3-[{1-benzyl-1H-1,2,3-triazol-4-yl}methoxy]-4-bromo-13α-estra-1,3,5(10)-trien-17-one]",inhibition at 10 µM,"[6]; NIH3T3, NIH/3T3, 10 µM, MTT, read-out: inhibition of cell growth",28.7 ± 1.26%
same,inhibition at 30 µM,"[6]; NIH3T3, NIH/3T3, 30 µM, MTT, read-out: inhibition of cell growth",37.9 ± 0.75%
same,IC50,"[6]; NIH3T3, NIH/3T3, MTT",> 30 µM
same,inhibition at 10 µM,"[7]; MCF-7, 10 µM, 72 h, read-out: Inhibition (%) ± SEM",42 ± 0.97%
same,inhibition at 30 µM,"[7]; MCF-7, 30 µM, 72 h, read-out: Inhibition (%) ± SEM",52.5 ± 0.94%
same,IC50,"[7]; MCF-7, 72 h, read-out: calculated IC50",12.7 µM
same,inhibition at 10 µM,"[8]; MDA-MB-231, 10 µM, 72 h, read-out: Inhibition (%) ± SEM",52.9 ± 1.32%
same,inhibition at 30 µM,"[8]; MDA-MB-231, 30 µM, 72 h, read-out: Inhibition (%) ± SEM",53.8 ± 2.43%
same,IC50,"[8]; MDA-MB-231, 72 h, read-out: calculated IC50",8.8 µM
same,melting point,,188 to 190 °C
same,inhibition at 10 µM,"[9]; A2780, 10 µM, 72 h, read-out: Inhibition (%) ± SEM",93.16 ± 0.47%
same,inhibition at 30 µM,"[9]; A2780, 30 µM, 72 h, read-out: Inhibition (%) ± SEM",95.43 ± 0.42%
same,IC50,"[9]; A2780, 72 h, read-out: calculated IC50",0.55 µM
same,maximum rate of tubulin polymerisation (Vmax),[10]; 125 µM test compound,increased
same,maximum rate of tubulin polymerisation (Vmax),[10]; 250 µM test compound,increased by our test compound which was significant
"CC(C)(C)c1ccc(Cn2cc(COc3ccc4c(c3)CC[C@@H]3[C@@H]4CC[C@@]4(C)C(=O)CC[C@@H]34)nn2)cc1 [Compound 4b, 3-[{1-(4-tert-butylbenzyl)-1H-1,2,3-triazol-4-yl}methoxy]-13α-estra-1,3,5(10)-trien-17-one]",influence on the growth of the tested cell lines,[11],did not have marked influence on the growth
CCC[C@H]1[C@@H]2CCc3cc(OCc4cn(Cc5ccccc5)nn4)ccc3[C@H]2CC[C@]1(C)CO [Compound 3],maximum rate of microtubule formation,[12],significantly increases the maximum rate of microtubule formation
same,migration and invasion,[13],inhibits the migration and invasion
same,cell cycle effect,[14],cell cycle arrest at G2/M
COc1cc2c(cc1O)CC[C@@H]1[C@@H]2CC[C@]2(C)[C@@H](O)CC[C@@H]12 [2-methoxyestradiol],effect on tubulin polymerisation,[12],inhibit tubulin polymerisation
C[C@@]12CC[C@@H]3c4cc(Br)c(O)cc4CC[C@H]3[C@@H]1CCC2=O [Compound 5],IC50,[4],~1 µM
